Data from PubChem BioAssay (NCI).
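Cultured in 96-well plates, cells were exposed to test compound for 48 hours across five concentrations. TGI: concentration producing complete growth inhibition.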

How the values were obtained:
Assay in all cases: DTP human tumour cell line panel, 48 h
SF-268 CNS = system: SF-268 CNS
HCC-2998 colon = system: HCC-2998 colon
ACHN renal = system: ACHN renal
EKVX NSCLC = system: EKVX NSCLC
KM12 colon = system: KM12 colon
K-562 leukemia = system: K-562 leukemia
OVCAR-3 ovarian = system: OVCAR-3 ovarian
MDA-MB-231 breast = system: MDA-MB-231 breast
DU-145 prostate = system: DU-145 prostate
SK-MEL-28 melanoma = system: SK-MEL-28 melanoma
CCRF-CEM leukemia = system: CCRF-CEM leukemia
HT29 colon = system: HT29 colon
NCI-H522 lung = system: NCI-H522 lung
NCI/ADR-RES ovarian = system: NCI/ADR-RES ovarian
CAKI-1 renal = system: CAKI-1 renal
MALME-3M melanoma = system: MALME-3M melanoma
UO-31 renal = system: UO-31 renal
BT-549 breast = system: BT-549 breast
RXF 393 renal = system: RXF 393 renal
OVCAR-8 ovarian = system: OVCAR-8 ovarian
HOP-62 NSCLC = system: HOP-62 NSCLC
NCI-H460 lung = system: NCI-H460 lung
SNB-75 CNS = system: SNB-75 CNS
NCI-H23 lung = system: NCI-H23 lung
T-47D breast = system: T-47D breast
COLO 205 colon = system: COLO 205 colon
OVCAR-5 ovarian = system: OVCAR-5 ovarian
MOLT-4 leukemia = system: MOLT-4 leukemia
SW-620 colon = system: SW-620 colon
UACC-62 melanoma = system: UACC-62 melanoma
SF-539 CNS = system: SF-539 CNS
SK-MEL-5 melanoma = system: SK-MEL-5 melanoma
NCI-H226 lung = system: NCI-H226 lung
IGROV1 ovarian = system: IGROV1 ovarian
A549 NSCLC = system: A549 NSCLC
786-0 renal = system: 786-0 renal
HS 578T breast = system: HS 578T breast
HCT-116 colon = system: HCT-116 colon
HCT-15 colon = system: HCT-15 colon

Structure (SMILES): CC(C)(C)c1ccc(O)c(C(O)c2cccnc2)c1 (centres undefined)
- TGI (SF-268 CNS): > 100 µM
- TGI (HCC-2998 colon): > 100 µM
- TGI (ACHN renal): > 100 µM
- TGI (EKVX NSCLC): > 100 µM
- TGI (KM12 colon): > 100 µM
- TGI (K-562 leukemia): > 100 µM
- TGI (OVCAR-3 ovarian): > 100 µM
- TGI (MDA-MB-231 breast): > 100 µM
- TGI (DU-145 prostate): > 100 µM
- TGI (SK-MEL-28 melanoma): > 100 µM
- TGI (CCRF-CEM leukemia): > 100 µM
- TGI (HT29 colon): > 100 µM
- TGI (NCI-H522 lung): > 100 µM
- TGI (NCI/ADR-RES ovarian): > 100 µM
- TGI (CAKI-1 renal): > 100 µM
- TGI (MALME-3M melanoma): > 100 µM
- TGI (UO-31 renal): > 100 µM
- TGI (BT-549 breast): > 100 µM
- TGI (RXF 393 renal): > 100 µM
- TGI (OVCAR-8 ovarian): > 100 µM
- TGI (HOP-62 NSCLC): > 100 µM
- TGI (NCI-H460 lung): > 100 µM
- TGI (SNB-75 CNS): > 100 µM
- TGI (NCI-H23 lung): > 100 µM
- TGI (T-47D breast): 53.7 µM
- TGI (COLO 205 colon): > 100 µM
- TGI (OVCAR-5 ovarian): > 100 µM
- TGI (MOLT-4 leukemia): > 100 µM
- TGI (SW-620 colon): > 100 µM
- TGI (UACC-62 melanoma): > 100 µM
- TGI (SF-539 CNS): > 100 µM
- TGI (SK-MEL-5 melanoma): > 100 µM
- TGI (NCI-H226 lung): > 100 µM
- TGI (IGROV1 ovarian): > 100 µM
- TGI (A549 NSCLC): > 100 µM
- TGI (786-0 renal): > 100 µM
- TGI (HS 578T breast): > 100 µM
- TGI (HCT-116 colon): > 100 µM
- TGI (HCT-15 colon): > 100 µM
